Test results from patent US9115147B2, “Tricyclic derivatives and their pharmaceutical use and compositions” (Cephalon, Inc., priority 2009, dated 2015).
pKi: −log10 of the molar value.

These compounds were tested against T1, human 5-HT6 receptor (Homo sapiens, UniProt P50406) (assay: Human 5-HT6 Receptor Binding Assay ([3H]LSD, scintillation beads)). Conditions: Human 5-HT6 Ki (nM), actual data; membranes of CHO-K1 cells with recombinant human 5-HT6 receptor, 4 nM [3H]LSD.
T1 construct: host or cells: CHO-K1 cells, stably transfected; membranes prepared in house
Procedure: Human 5-HT6 Receptor Binding Assay
Membranes were prepared from CHO-K1 cells stably transfected with the human 5-HT6 receptor (Euroscreen; ES-316-C). The cells were grown in Gibco Advanced DMEM-F12 (Cat#12634010) containing 2% dialyzed FBS (Hyclone Cat#SH30079.03). The cells were harvested in phosphate buffered saline (PBS) containing 0.1 mM EDTA and pelleted by centrifugation (1000×g), the supernatant was discarded and the pellets were stored at −80° C. prior to membrane preparation. Membranes were prepared as previously described (J Bio Chem. 1992, 267 (14) 9844-51). Briefly, frozen cell pellet was resuspended in a lysis buffer containing 5 mM Tris-HCl (pH 7.5), 5 mM EDTA and 1 complete EDTA-free protease inhibitor tablet (Roche Applied Science, Indianapolis, Ind.) per 50 mL buffer, and homogenized with a tissue homogenizer. The cell lysate was then centrifuged at 40,000×g for 30 min at 4° C. to collect the membranes. The membrane pellets were washed in membrane buffer (50 mM Tris-HCl (pH 7.5), 0.6 mM EDTA, 5 mM MgCl2, 1 complete EDTA-free protease inhibitor tablet per 50 mL buffer) using a tissue homogenizer. The membranes were centrifuged at 40,000×g for 30 min at 4° C. and the pellets were resuspended in membrane buffer containing 250 mM sucrose, and protein concentration was determined using the Coomassie Plus kit (Pierce Biotechnology, Rockford, Ill.).
Membranes prepared from cells expressing recombinant human 5-HT6 receptor (h5-HT6) were resuspended in assay buffer containing 50 mM Tris HCl, (pH7.4), 4 mM CaCl2, 10 μg/mL saponin, and 0.1% (w/v) ascorbic acid. Membranes were preincubated using 1.75 μg membrane protein and 0.25 mg FlashBlue scintillation beads (PerkinElmer catalogue #FB001) per well at 4° C. for 30 min. […] Test compounds or assay controls for total and non-specific binding were diluted in DMSO as 100× solutions and serially diluted by half log concentrations on a Perkin Elmer JANUS Automated Workstation. Serotonin (10 μM final concentration) was used to determine non-specific binding in the assay. Plates were read using the Microbeta Trilux 1450 LSC and luminescence counter. Data were analyzed by nonlinear […] using the dose-response equation (variable slope) to calculate IC50 in XLfit4 (ID Business Solutions Inc.): y=(Bottom+((Top−Bottom)/(1+((IC50/x)^Hill slope))))
Ki value was then calculated according to the Cheng-Prusoff method using the equation below (Cheng and Prusoff, 1973): Ki, app=IC50/(1+([radioligand]/Kd))

T1 sequence (P50406 whole entry): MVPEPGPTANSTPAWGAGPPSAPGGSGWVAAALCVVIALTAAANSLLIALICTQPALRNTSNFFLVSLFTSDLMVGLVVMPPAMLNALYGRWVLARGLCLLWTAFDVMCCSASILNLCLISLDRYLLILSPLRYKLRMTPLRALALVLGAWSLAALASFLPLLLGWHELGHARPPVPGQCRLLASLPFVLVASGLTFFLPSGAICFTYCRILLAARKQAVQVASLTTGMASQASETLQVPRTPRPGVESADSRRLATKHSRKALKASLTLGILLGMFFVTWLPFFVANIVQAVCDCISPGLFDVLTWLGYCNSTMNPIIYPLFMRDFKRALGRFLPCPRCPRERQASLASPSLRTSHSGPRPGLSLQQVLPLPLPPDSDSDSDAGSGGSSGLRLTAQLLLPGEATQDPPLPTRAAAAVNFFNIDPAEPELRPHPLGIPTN

Row | Structure (SMILES) | Ki
1 | COc1cncc(S(=O)(=O)c2ccc3c(c2)OCC2NCCC32)c1 (racemic) [Example 110, 7-[(5-methoxypyridin-3-yl)sulfonyl]-1,2,3,3a,4,9b-hexahydrochromeno[3,4-b]pyrrole] | 98.4 nM

Same assay, conditions: Human 5-HT6 Ki app (nM), membranes of CHO-K1 cells with recombinant human 5-HT6 receptor, 4 nM [3H]LSD, Cheng-Prusoff

Row | Structure (SMILES) | Ki
2 | COc1cncc(S(=O)(=O)c2ccc3c(c2)OCC2NCCC32)c1 (racemic) [Example 110, 7-[(5-methoxypyridin-3-yl)sulfonyl]-1,2,3,3a,4,9b-hexahydrochromeno[3,4-b]pyrrole] | < 500 nM
3 | O=S(=O)(c1cncc(Cl)c1)c1ccc2c(c1)OCC1NCCC21 (racemic) [Example 111, 7-[(5-chloropyridin-3-yl)sulfonyl]-1,2,3,3a,4,9b-hexahydrochromeno[3,4-b]pyrrole] | < 500 nM

Same assay, conditions: actual data; membranes of CHO-K1 cells with recombinant human 5-HT6 receptor, 4 nM [3H]LSD; read-out: Human 5-HT6 Ki

Row | Structure (SMILES) | pKi
4 | O=S(=O)(c1ccccc1)c1ccc2c(c1)OCC1NCCC21 (racemic) [Example 104, 7-(phenylsulfonyl)-1,2,3,3a,4,9b-hexahydrochromeno[3,4-b]pyrrole] | 8.60

Same assay, conditions: membranes of CHO-K1 cells with recombinant human 5-HT6 receptor, 4 nM [3H]LSD, Cheng-Prusoff; read-out: Human 5-HT6 Ki app

Row | Structure (SMILES) | pKi
5 | [O-][S+](c1ccccc1)c1ccc2c(c1)OCC1NCCC21 (racemic) [Example 25, 7-(Phenylsulfinyl)-1,2,3,3a,4,9b-hexahydrochromeno[3,4-b]pyrrole] | > 6.30
6 | [O-][S+](c1ccccc1)c1ccc2c(c1)OCC1NCCC21 (racemic) [Example 26, 7-(Phenylsulfinyl)-1,2,3,3a,4,9b-hexahydrochromeno[3,4-b]pyrrole] | < 6.00
7 | O=S(=O)(c1ccccc1)c1ccc2c(c1)OCC1NCCC21 (racemic) [Example 104, 7-(phenylsulfonyl)-1,2,3,3a,4,9b-hexahydrochromeno[3,4-b]pyrrole] | > 6.30
8 | O=S(=O)(c1cc(F)cc(F)c1)c1ccc2c(c1)OCC1NCCC21 (racemic) [Example 105, 7-[(3,5-difluorophenyl)sulfonyl]-1,2,3,3a,4,9b-hexahydrochromeno[3,4-b]pyrrole] | > 6.30
9 | [O-][S+](c1ccccc1)c1ccc2c(c1)OCC1NCCC21 (racemic) [Example 106, 7-(phenylsulfinyl)-1,2,3,3a,4,9b-hexahydrochromeno[3,4-b]pyrrole] | > 6.30
10 | CC(C)Oc1cccc(S(=O)(=O)c2ccc3c(c2)OCC2NCCC32)c1 (racemic) [Example 107, 7-{[3-(propan-2-yloxy)phenyl]sulfonyl}-1,2,3,3a,4,9b-hexahydrochromeno[3,4-b]pyrrole] | > 6.30
11 | COc1cc(F)cc(S(=O)(=O)c2ccc3c(c2)OCC2NCCC32)c1 (racemic) [Example 109, 7-[(3-fluoro-5-methoxyphenyl)sulfonyl]-1,2,3,3a,4,9b-hexahydrochromeno[3,4-b]pyrrole] | > 6.30
12 | O=S(=O)(c1cccc(F)c1)c1ccc2c(c1)OCC1NCCC21 (single isomer, unassigned) [Example 1, 7-[(3-fluorophenyl)sulfonyl]-1,2,3,3a,4,9b-hexahydrochromeno[3,4-b]pyrrole] | > 6.30
13 | O=S(=O)(c1cccc(Cl)c1)c1ccc2c(c1)OCC1NCCC21 (single isomer, unassigned) [Example 2, 7-[(3-chlorophenyl)sulfonyl]-1,2,3,3a,4,9b-hexahydrochromeno[3,4-b]pyrrole] | > 6.30
14 | O=S(=O)(c1cc(Cl)cc(Cl)c1)c1ccc2c(c1)OCC1NCCC21 (single isomer, unassigned) [Example 3, 7-[(3,5-dichlorophenyl)sulfonyl]-1,2,3,3a,4,9b-hexahydrochromeno[3,4-b]pyrrole] | > 6.30
15 | O=S(=O)(c1ccc(F)cc1)c1ccc2c(c1)OCC1NCCC21 (single isomer, unassigned) [Example 4, 7-[(4-fluorophenyl)sulfonyl]-1,2,3,3a,4,9b-hexahydrochromeno[3,4-b]pyrrole] | > 6.30
16 | O=S(=O)(c1cc(F)cc(Cl)c1)c1ccc2c(c1)OCC1NCCC21 (single isomer, unassigned) [Example 6, 7-[(3-chloro-5-fluorophenyl)sulfonyl]-1,2,3,3a,4,9b-hexahydrochromeno[3,4-b]pyrrole] | > 6.30
17 | O=S(=O)(c1cccc(OC(F)(F)F)c1)c1ccc2c(c1)OCC1NCCC21 (single isomer, unassigned) [Example 7, 7-{[3-(trifluoromethoxy)phenyl]sulfonyl}-1,2,3,3a,4,9b-hexahydrochromeno[3,4-b]pyrrole] | > 6.30
18 | O=S(=O)(c1cccc(C(F)(F)F)c1)c1ccc2c(c1)OCC1NCCC21 (single isomer, unassigned) [Example 8, 7-{[3-(trifluoromethyl)phenyl]sulfonyl}-1,2,3,3a,4,9b-hexahydrochromeno[3,4-b]pyrrole] | > 6.30
